Where a SMILES comes first, the peptide text is derived from it. Where no end group is shown, it is not given here.
How the values were obtained:
neuronal cells = experiment: Neuronal cell death induced by glutamic acid (TUNEL staining, TUNEL positive cell count); format: cell-based, Wister rat; conditions: peptides of SEQ Nos. 5 and 6 1 μM, FK506 1 μM, ALLM 25 μM; glutamic acid 500 μM; TUNEL at 3, 6, 12 or 24 hours; FIG. 2
Procedure: (§1) After the brain hippocampus from 18 days embryo of Wister rat had been removed, it was treated with PBS containing 0.05% trypsin for 15 minutes at 37° C. After the neuronal cells were suspended with a glass pipet, 1×10^6 cells were cultured in a 3.5 cm diameter culture dish which was previously coated with poly-D-lysine. As the medium, 3 ml Neuro Basal medium (available from Invitrogen, Inc.) complemented with B27 supplement (0.03 ml; available from Invitrogen, Inc.), penicillin (100 units/ml in the final concentration; available from Invitrogen, Inc.) and streptomycin (100 μg/ml in the final concentration; available from Invitrogen, Inc.) was used and the cultivation was carried out in carbon dioxide incubator (5% CO2, 37° C.).
The neuronal cells were cultured in the same manner as in Example 1, and then the above-mentioned peptides of SEQ Nos. 5 and 6 were added in the final concentration of 1 μM in the same manner as in Example 1. The calcineurin inhibitor, FK506 (available from Fujisawa pharmaceutical Co., Ltd.; the final concentration of 1 μM) or calpain inhibitor, ALLM (available from Merck & Co., Inc.; the final concentration of 25 μM) was added as a control. After 2 hours incubation with each reagent, glutamic acid was added in the final concentration of 500 μM, followed by 15 minutes incubation. […] The TUNEL positive cell was counted.

[1] = system: calcineurin subunit A (CaNA); experiment: Cleavage of CaNA in cultured neuronal cells after glutamic acid addition (Western blotting); format: cell-based, Wister rat; conditions: peptides of SEQ Nos. 5 and 6 at 1 μM; glutamic acid 500 μM, 15 minutes; cells collected at 3 hours and 24 hours; FIG. 1
Procedure: as §1
The peptides of above-mentioned SEQ Nos. 5 and 6 were added in the culture solution with the final concentration of 1 μM 10 days after beginning of culture, and it was incubated in carbon dioxide incubator (5% CO2, 37° C.). Three hours after the addition, glutamic acid was added in the final concentration of 500 μM, and it was incubated for 15 minutes. The culture solution was then exchanged, and it was further cultured. The cells were collected at 3 hours and 24 hours after glutamic acid was added, were disrupted by ultrasonic wave in 1% SDS solution, and the SDS-PAGE buffer was added thereto. […]

neuronal cell death = conditions: reported in literature (Morioka 1999; Springer 2000); cited from earlier work

Compound	neuronal cell death induced by glutamic acid (neuronal cells)	cleavage of calcineurin caused by the addition of glutamic acid [1]	neuronal cell death (neuronal cell death)
CSCC[C@@H](C=O)NC(=O)[C@H](CC(C)C)NC(=O)[C@H](CC(C)C)NC(C)=O [ALLM] (Ac-Leu-Leu-Met-aldehyde)	same degree		
cleavage inhibiting peptide: peptides of SEQ Nos. 5 and 6 added together to the culture solution, 1 μM final concentration (chain 1 RRRRRRRRRRFDGATAAARKEVIRNK; chain 2 RRRRRRRRRRREESESVLTLKGLTPTG; also: mixture of two peptides added together)	suppressive effect	inhibited	
cyclosporin A			suppresses neuronal cell death

Reference: patent US7183375B2, “Inhibitors for continuous activation for calcineurin” (Agencey of Industrial Science and Technology, priority 2002, dated 2007)
